Patent publication US8440724B2, “Inhibiting neurotransmitter reuptake” (Mayo Foundation for Medical Education and Research, priority 2008, dated 2013)
Entries after “also recorded” stand apart in the source; their conditions may differ. Read-outs that look alike come from different tables or passages of the source.

How the values were obtained:
[1] = biological target: T1, human norepinephrine transporter (hNET) (Homo sapiens, UniProt P23975); experiment: Radioligand binding to cloned hNET, [3H]nisoxetine, HEK-293 cell membranes; conditions: Geometric Mean ± SEM; HCl salts; read-out: Equilibrium Dissociation Constant (KD) for Transporter Binding, hNET (N)
T1 construct: expressed in transfected cells; host or cells: HEK-293, stably transfected
Description: (§1) HEK-293 cells expressing the recombinant hSERT or hDAT were incubated with Dulbecco's modified Eagles medium (MEM) supplemented with 0.1 mM nonessential amino acid solution for MEM, 5% v/v fetal bovine serum and 1 U/mL penicillin/streptomycin solution. Cells expressing the hNET transporter were incubated with Dulbecco's modified Eagles medium supplemented with 10% v/v fetal bovine serum and 100 U/mL penicillin/streptomycin solution and 2 mM L-glutamine. The cells were grown until 70-80% confluent on 175 cm^2 flasks in a humidified 10% CO2/90% air environment at 37° C., with the selecting antibiotic Geneticin sulfate at 250 μg/mL. The cells were incubated in 10% CO2, 90% air at 37° C. and 100% humidity.
(§2) Cell membranes containing hSERT, hNET, or hDAT were prepared from the cell lines to assay ligand binding for each of the transporters. […] The washed cells were incubated for 5 minutes at 37° C. in 10 mL solution 1 containing 100 mM ethylene glycol-bis N,N,N′,N′-tetraacetic acid (EGTA). The cells were then scraped from the flask surface with a rubber spatula, placed into a centrifuge tube, and collected by centrifugation at 1000×g for 5 minutes at 4° C. The resulting supernatant was discarded, and the cell pellet was resuspended in 0.5 to1.0 mL of the appropriate binding buffer (described below). The resuspended cell pellet was homogenized using a Polytron for 10 seconds at setting 6. The resulting homogenate was centrifuged at about 36,000×g for 10 minutes at 4° C. The supernatant was discarded, and the pellet was resuspended in the same volume of the appropriate binding buffer and centrifuged again. The supernatant was discarded, and the final pellet containing cell membranes was resuspended in the appropriate binding buffer and stored at −80° C. until use.
To assess binding to the cloned hNET, cells expressing hNET were homogenized in 50 mM Tris-HCl with 300 mM NaCl and 5 mM KCl (pH 7.4). The binding reaction consisted of 5 μg cell membrane protein, 0.5 nM [^3H]nisoxetine (nisoxetine HCl, [N-methyl-^3H], specific activity 82.0 Ci/mmol; Amersham, Arlington Hts., Ill.), and varying concentrations of either unlabeled nisoxetine or the test compound. A reaction to determine non-specific binding consisted of 5 μg cell membrane protein, 0.5 nM [^3H]nisoxetine, and 1 μM final concentration of unlabeled nisoxetine. The reactions were incubated at 22° C. for 60 minutes. Following incubation, the reactions were terminated by rapid filtration through separate GF/B filter strips pretreated with 0.2% polyethylenimine in a 48-well Brandel cell harvester. The cell membrane-containing filter strips were then rinsed five times with ice-cold 0.9% NaCl. After rinsing, individual filters were cut from the strip and placed in a scintillation vial containing 6.5 mL of Redi-Safe (Beckman-Coulter, Fullerton, Calif.).
(§3) The program was modified to calculate the Hill coefficient (nH). Data are presented as geometric mean±S.E.M. of at least three independent experiments. One-component models and two-component models were compared using the root mean square error of each fit and the F test.

hSERT, hNET, hDAT = experiment: Human transporter binding: rank order and range of potency over the three transporters; conditions: for Potency (rank-order of potency of binding; S = hSERT, N = hNET, D = hDAT): from KD values; for Potency Range (difference between most potent and least potent binding): ratio of KD over hSERT, hNET, hDAT
Excerpt: as §3

Male Sprague-Dawley rats = experiment: Forced swim test in rats; type: in vivo, rat; conditions: for Antidepressant activity in forced swim test compared with imipramine (15 mg/kg IP): FIG. 12A
Description: When rats are placed in a cylinder of water from which they cannot escape, they will remain immobile in the water for the majority of the test.
Water was changed between trials, and the procedure involved a pretest and a 5-minute test separated by 24 hours. During the pretest, rats (adapted to the experimental room for no less than one hour) were placed in the cylinder for 15 minutes. Following this initial exposure, the rats were dried with towels and transferred to a “drying cage” situated under a warming lamp. […] The following day, rats were transferred to the experimental room and acclimated for at least one hour.
The rat was considered immobile when floating motionless or making only those movements necessary to keep its head above the surface of the water. Scores for each behavior (swimming or immobility) were expressed as total counts per 5-minute session. Statistical analysis was performed using ANOVA followed by the Tukey test for post-hoc comparisons.

[2] = biological target: T2, human serotonin transporter (hSERT) (Homo sapiens, UniProt P31645); experiment: Radioligand binding to cloned hSERT, [3H]citalopram, HEK-293 cell membranes; conditions: for Kd: Geometric Mean ± SEM, HCl salts, read-out: Equilibrium Dissociation Constant (KD) for Transporter Binding, hSERT (S); for Binding at hSERT compared to PRC200-SS: in words
T2 construct: expressed in transfected cells; host or cells: HEK-293, stably transfected
Description: as §1, §2
Radioligand binding assays for the indicated transporters were performed as follows. To assess binding to the cloned hSERT, cells expressing hSERT were homogenized in 50 mM Tris-HCl with 120 mM NaCl and 5 mM KCl (pH 7.4). The binding reaction consisted of 10 μg cell membrane protein, […] [^3H]citalopram (citalopram, [N-methyl-^3H], specific activity 79.0 Ci/mmol; PerkinElmer, Boston, Mass.), and varying concentrations of either unlabeled citalopram or the test compound. A reaction to determine non-specific binding consisted of 10 μg cell membrane protein, 0.5 nM [^3H]citalopram, and 1 μM final concentration of unlabeled citalopram. The reactions were incubated at 22° C. for 60 minutes. Following incubation, the reactions were terminated by rapid filtration through separate GF/B filter strips pretreated with 0.2% polyethylenimine in a 48-well Brandel cell harvester. The cell membrane-containing filter strips were then rinsed five times with ice-cold 0.9% NaCl. After rinsing, individual filters were cut from the strip and placed in a scintillation vial containing 6.5 mL of Redi-Safe (Beckman-Coulter, Fullerton, Calif.).
as §3

[3] = biological target: T3, human dopamine transporter (hDAT) (Homo sapiens, UniProt Q01959); experiment: Radioligand binding to cloned hDAT, [3H]WIN35428, HEK-293 cell membranes
T3 construct: expressed in transfected cells; host or cells: HEK-293, stably transfected
Description: as §1, §2
To assess binding to the cloned hDAT, cells expressing hDAT were homogenized in 50 mM Tris-HCl with 120 mM NaCl (pH 7.4). The binding reaction contained 15 μg cell membrane protein, 1 nM [^3H]WIN35428 (WIN35428, [N-methyl-^3H], specific activity 85.9 Ci/mmol; PerkinElmer, Boston, Mass.), and varying concentrations of either unlabeled WIN35428 or the test compound. A reaction to determine non-specific binding contained 15 μg cell membrane protein, 1 nM [^3H]WIN35428, and 10 μM final concentration of unlabeled WIN35428. The reactions were incubated at 22° C. for 1 hour. Following incubation, the reactions were terminated by rapid filtration through separate GF/B filter strips pretreated with 0.2% polyethylenimine in a 48-well Brandel cell harvester. The cell membrane-containing filter strips were then rinsed five times with ice-cold 0.9% NaCl. After rinsing, individual filters were cut from the strip and placed in a scintillation vial containing 6.5 mL of Redi-Safe (Beckman-Coulter, Fullerton, Calif.).
as §3

hERG = hERG (Homo sapiens, UniProt Q12809); experiment: hERG assay: block of rubidium ion (Rb+) efflux from cells expressing hERG
Description: Human “ether-a-go-go” (hERG) is an ion channel. Blockade of this channel can be predictive of causing cardiac arrhythmias in humans. hERG assays were performed to measure the ability of a compound to block rubidium ion (Rb^+) efflux from cells expressing hERG. Cells were pre-loaded with Rb^+, incubated with test compound, and then exposed to a buffer that opens the channel and allows the efflux of ions. Compounds as powder were dissolved in 100% DMSO to prepare 100 mM stock solutions. […] The stocks were stored at 23° C.
The range of doses for the test compounds was 30 nM through 100,000 nM.

CYP2D6 = biological target: T4, CYP2D6 (Homo sapiens, UniProt P10635); experiment: CYP2D6 inhibition, CYP2D6/AMMC kit (BD Biosciences), fluorescent substrate; type: in vitro ADME
T4 construct: purchased BD Biosciences 459200
Excerpt: This kit includes the use of a fluorescent P450 substrate (AMMC or 3-[2-(N,N-diethyl-N-methylamino)ethyl]-7-methoxy-4-methylcoumarin) and recombinant human P450.

[4] = system: rat 5-HT, NE and DA transport, synaptosomal preparations; experiment: Rat brain synaptosomal transport: rank order of potency; type: biochemical
Description: The dissected tissues were separately homogenized in 20 volumes (cortical) or 40 volumes (striatal) of ice-cold, oxygenated HEPES buffer 0.32 M sucrose containing 11 mM glucose (pH 7.4) in a glass Potter-Elvehjem homogenizer with Teflon® pestle (8 strokes, 900 rpm). The homogenates were centrifuged at 1,000×g for 10 minutes. The resulting supernatant was decanted and further centrifuged at 20,000×g for 20 minutes at 4° C. […] The synaptosomal protein concentration was determined by using the BCA assay (Pierce Biotechnology Inc, Rockford, Ill.), according to the manufacturer's instructions. Synaptosomal protein (1.0-2.5 mg) was suspended in 1 mL oxygenated incubation buffer as defined above. Test amine compound was pre-incubated with the synaptosomal preparation for 30 minutes at 37° C. in a shaking water bath (80 oscillations/minute).

[5] = Geometric Mean ± SEM, HCl salts, read-out: Equilibrium Dissociation Constant (KD) for Transporter Binding, hDAT (D)

T4 sequence (P10635 whole entry): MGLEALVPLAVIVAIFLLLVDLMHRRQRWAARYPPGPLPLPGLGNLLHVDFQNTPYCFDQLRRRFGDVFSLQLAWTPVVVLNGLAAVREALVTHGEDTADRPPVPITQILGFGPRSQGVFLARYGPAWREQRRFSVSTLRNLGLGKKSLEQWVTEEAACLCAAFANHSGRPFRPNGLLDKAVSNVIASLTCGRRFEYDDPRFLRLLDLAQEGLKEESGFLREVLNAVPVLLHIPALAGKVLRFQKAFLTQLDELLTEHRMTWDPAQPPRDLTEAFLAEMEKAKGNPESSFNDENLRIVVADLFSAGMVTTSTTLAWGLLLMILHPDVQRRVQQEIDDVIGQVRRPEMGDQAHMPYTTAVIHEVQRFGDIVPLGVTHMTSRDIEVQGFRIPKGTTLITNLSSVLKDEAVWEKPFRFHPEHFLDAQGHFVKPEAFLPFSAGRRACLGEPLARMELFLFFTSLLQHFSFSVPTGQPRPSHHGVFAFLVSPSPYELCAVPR
T3 sequence (Q01959 whole entry): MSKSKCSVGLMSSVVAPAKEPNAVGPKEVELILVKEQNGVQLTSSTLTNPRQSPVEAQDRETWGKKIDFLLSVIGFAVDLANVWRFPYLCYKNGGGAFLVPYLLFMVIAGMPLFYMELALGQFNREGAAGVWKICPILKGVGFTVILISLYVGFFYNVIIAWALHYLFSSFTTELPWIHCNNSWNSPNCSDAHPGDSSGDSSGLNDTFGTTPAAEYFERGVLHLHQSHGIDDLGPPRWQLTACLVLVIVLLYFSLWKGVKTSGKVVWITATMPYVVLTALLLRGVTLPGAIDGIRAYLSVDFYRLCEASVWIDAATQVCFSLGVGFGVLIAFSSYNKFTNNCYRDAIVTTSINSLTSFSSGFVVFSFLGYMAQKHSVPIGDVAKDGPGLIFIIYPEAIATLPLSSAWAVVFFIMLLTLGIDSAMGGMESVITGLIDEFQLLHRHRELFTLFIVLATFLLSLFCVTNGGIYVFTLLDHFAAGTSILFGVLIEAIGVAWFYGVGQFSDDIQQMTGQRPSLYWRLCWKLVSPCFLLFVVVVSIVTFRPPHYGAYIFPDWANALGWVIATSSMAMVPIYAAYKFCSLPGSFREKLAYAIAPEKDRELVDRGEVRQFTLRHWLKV
T1 sequence (P23975 whole entry): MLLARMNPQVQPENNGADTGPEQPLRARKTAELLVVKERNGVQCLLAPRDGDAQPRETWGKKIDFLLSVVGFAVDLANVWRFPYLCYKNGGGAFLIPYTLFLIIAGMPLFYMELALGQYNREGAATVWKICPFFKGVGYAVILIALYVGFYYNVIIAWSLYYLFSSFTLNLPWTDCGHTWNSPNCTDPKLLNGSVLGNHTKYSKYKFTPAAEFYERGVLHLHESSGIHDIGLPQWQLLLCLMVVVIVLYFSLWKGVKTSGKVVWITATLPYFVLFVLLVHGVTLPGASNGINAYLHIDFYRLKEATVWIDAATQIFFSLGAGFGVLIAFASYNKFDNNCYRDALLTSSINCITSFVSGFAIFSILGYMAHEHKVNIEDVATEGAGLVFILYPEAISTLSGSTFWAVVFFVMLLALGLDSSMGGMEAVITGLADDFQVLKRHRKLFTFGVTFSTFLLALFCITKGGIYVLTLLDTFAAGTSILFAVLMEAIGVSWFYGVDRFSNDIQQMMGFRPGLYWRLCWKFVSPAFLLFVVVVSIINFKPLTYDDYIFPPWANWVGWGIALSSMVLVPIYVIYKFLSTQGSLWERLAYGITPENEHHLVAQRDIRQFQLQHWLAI
T2 sequence (P31645 whole entry): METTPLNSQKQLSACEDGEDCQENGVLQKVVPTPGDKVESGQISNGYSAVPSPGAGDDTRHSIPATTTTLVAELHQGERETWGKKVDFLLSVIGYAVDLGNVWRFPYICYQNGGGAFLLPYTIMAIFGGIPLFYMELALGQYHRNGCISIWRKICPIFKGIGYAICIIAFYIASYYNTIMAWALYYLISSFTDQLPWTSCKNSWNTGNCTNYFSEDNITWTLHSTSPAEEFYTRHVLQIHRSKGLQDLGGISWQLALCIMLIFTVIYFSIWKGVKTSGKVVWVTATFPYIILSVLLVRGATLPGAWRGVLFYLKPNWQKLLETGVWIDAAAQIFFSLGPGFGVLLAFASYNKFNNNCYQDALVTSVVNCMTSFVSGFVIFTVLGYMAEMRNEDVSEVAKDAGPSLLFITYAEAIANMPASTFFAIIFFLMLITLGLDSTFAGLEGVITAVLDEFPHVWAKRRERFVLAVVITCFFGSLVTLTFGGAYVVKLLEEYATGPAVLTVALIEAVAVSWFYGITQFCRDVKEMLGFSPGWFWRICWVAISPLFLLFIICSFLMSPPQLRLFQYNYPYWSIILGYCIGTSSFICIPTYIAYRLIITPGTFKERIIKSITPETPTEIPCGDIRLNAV
Chain of hERG (Q12809 whole entry): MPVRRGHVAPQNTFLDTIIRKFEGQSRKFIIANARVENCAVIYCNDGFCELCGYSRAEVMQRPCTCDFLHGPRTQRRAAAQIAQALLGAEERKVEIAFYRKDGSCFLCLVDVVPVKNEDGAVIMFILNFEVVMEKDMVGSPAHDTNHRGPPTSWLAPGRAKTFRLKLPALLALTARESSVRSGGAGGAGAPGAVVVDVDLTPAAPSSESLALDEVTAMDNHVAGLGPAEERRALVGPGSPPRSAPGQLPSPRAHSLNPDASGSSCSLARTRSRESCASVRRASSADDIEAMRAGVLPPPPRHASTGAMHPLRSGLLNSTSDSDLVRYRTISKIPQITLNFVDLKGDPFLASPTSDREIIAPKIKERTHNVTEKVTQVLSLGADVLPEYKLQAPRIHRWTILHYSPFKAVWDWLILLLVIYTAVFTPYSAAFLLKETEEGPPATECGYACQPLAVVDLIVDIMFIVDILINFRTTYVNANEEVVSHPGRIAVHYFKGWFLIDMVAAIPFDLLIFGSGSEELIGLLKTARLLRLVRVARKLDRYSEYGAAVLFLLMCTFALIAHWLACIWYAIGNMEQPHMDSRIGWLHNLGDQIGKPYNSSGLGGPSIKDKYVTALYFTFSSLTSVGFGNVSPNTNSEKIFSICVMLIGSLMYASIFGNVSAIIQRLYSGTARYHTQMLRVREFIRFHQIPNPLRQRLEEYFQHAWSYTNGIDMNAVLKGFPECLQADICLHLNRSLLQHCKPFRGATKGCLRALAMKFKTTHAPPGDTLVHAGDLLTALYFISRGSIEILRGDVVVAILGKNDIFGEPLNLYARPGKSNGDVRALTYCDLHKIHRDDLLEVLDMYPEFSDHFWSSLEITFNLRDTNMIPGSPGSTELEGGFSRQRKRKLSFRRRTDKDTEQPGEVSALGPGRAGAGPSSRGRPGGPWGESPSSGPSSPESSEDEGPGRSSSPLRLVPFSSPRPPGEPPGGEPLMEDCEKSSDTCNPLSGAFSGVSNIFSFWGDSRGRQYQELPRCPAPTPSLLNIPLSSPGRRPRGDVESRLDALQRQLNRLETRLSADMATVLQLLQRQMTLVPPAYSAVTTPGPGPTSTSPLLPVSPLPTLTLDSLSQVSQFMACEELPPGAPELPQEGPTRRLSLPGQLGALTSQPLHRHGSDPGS

Structure (SMILES)	Kd [1]	Potency (rank-order of potency of binding; S = hSERT, N = hNET, D = hDAT) (hSERT, hNET, hDAT)	Potency Range (difference between most potent and least potent binding) (hSERT, hNET, hDAT)	Immobility in forced swim test vs saline (Male Sprague-Dawley rats; 5 mg/kg IP)	Swimming in forced swim test vs saline (Male Sprague-Dawley rats; 5 mg/kg IP)	Antidepressant activity in forced swim test compared with imipramine (15 mg/kg IP) (Male Sprague-Dawley rats; 5 mg/kg IP)	Kd [2]	Binding at hSERT compared to PRC200-SS [2]	Kd [3]	Kd [3, 5]	also measured
CNC[C@H](c1ccc2ccccc2c1)[C@@H](Cl)c1ccccc1 [MCJ001-Cl-RS, (2S,3R)-3-chloro-N-methyl-2-(naphthalen-2-yl)-3-phenylpropan-1-amine]	10.4 ± 0.4 nM	S > D > N	9.5 fold	statistically (P<0.04) less immobility	statistically (P<0.04) more swimming behavior	antidepressant activity that was similar to that observed in rats treated with the positive control	1.1 ± 0.1 nM	greater binding at hSERT	7.9 ± 0.4 nM		Binding at hDAT compared to PRC200-SS ([3]; in words): several fold more potent binding at hDAT
CNC[C@H](c1ccc2ccccc2c1)[C@H](Cl)c1ccccc1 [MCJ001-Cl-SS, (2S,3S)-3-chloro-N-methyl-2-(naphthalen-2-yl)-3-phenylpropan-1-amine]	3.7 ± 0.5 nM	S > N > D	71 fold	statistically (P<0.04) less immobility	statistically (P<0.04) more swimming behavior	antidepressant activity that was similar to that observed in rats treated with the positive control	1.1 ± 0.1 nM	greater binding at hSERT	78 ± 5 nM		IC50 (hERG): 45400 nM
CNC[C@@H](c1ccc2ccccc2c1)[C@H](N)c1ccccc1 [MCJ001-NH2-SR, (2R,3S)-N1-methyl-2-(naphthalen-2-yl)-3-phenylpropane-1,3-diamine]	166 ± 8 nM	N > S > D	1.6 fold				180 ± 10 nM			260 ± 20 nM	IC50 (CYP2D6): 4100 nM
CNC[C@H](c1ccc2ccccc2c1)[C@H](OC(C)=O)c1ccccc1 [MCJ001-OAc-SS, (1S,2S)-3-(methylamino)-2-(naphthalen-2-yl)-1-phenylpropyl acetate]		N > S > D	3.4 fold	statistically (P<0.04) less immobility	statistically (P<0.04) more swimming behavior	antidepressant activity that was similar to that observed in rats treated with the positive control	55 ± 6 nM			150 ± 20 nM	Potency of inhibition at CYP2D6, in words (CYP2D6; compared with PRC200-SS): markedly reduced the potency of inhibition at CYP2D6; IC50 (CYP2D6; recombinant human P450, AMMC substrate, read-out: Mean CYP2D6 (IC50)): 600 nM; Blocking of hERG channel compared with PRC200-SS (hERG; in words): weaker than PRC200-SS at blocking this channel; IC50 (hERG; read-out: hERG (IC50), Rb+ efflux, eight doses in duplicate): 78800 nM
CN1CO[C@H](c2ccccc2)[C@@H](c2ccc3ccccc3c2)C1 [MCJ001-OH-Cyc-SS, (5S,6S)-3-methyl-5-(naphthalen-2-yl)-6-phenyl-1,3-oxazinane]	2.7 ± 0.3 nM	S > N > D	29 fold			antidepressant activity that was similar to that observed in rats treated with the positive control	1.8 ± 0.2 nM	greater binding at hSERT	52 ± 5 nM		Immobility in forced swim test, 5 mg/kg IP vs 5 mg/kg PO of the same compound (Male Sprague-Dawley rats): statistically (P≦0.04) less immobility than rats treated with MCJ001-OH-Cyc-SS (5 mg/kg PO); Immobility in forced swim test vs saline (Male Sprague-Dawley rats; 5 mg/kg IP, 5 mg/kg): statistically (P<0.04) less immobility; also recorded: statistically (P≦0.04) less immobility; Swimming in forced swim test vs saline (Male Sprague-Dawley rats; 5 mg/kg IP, 5 mg/kg): statistically (P<0.04) more swimming behavior; Climbing in forced swim test vs saline (Male Sprague-Dawley rats; 5 mg/kg PO): statistically (P≦0.04) more climbing; Immobility in forced swim test vs saline (Male Sprague-Dawley rats; 5 mg/kg PO): statistically (P≦0.04) less immobility; Swimming in forced swim test vs saline (Male Sprague-Dawley rats; 5 mg/kg PO): statistically (P≦0.04) more swimming
CN1Cc2c(N)cccc2C(c2ccccc2)C1 (stereo not shown) [Nomifensine, reference compound]		N > D > S									Potency (rank order, transport into rat brain synaptosomal preparations) [4]: N > D > S
